pIC50: −log10 of the molar value.
How the values were obtained:
[1] = Inhibition of cAMP dependent protein kinase catalytic subunit of bovine heart; set-up: species or system Bos taurus
[2] = biological target: Protein kinase C eta type (Homo sapiens, UniProt P24723); test: Inhibition of Protein kinase C eta
[3] = biological target: Protein kinase C alpha type (Homo sapiens, UniProt P17252); test: Inhibition of Protein kinase C alpha
Protein kinase C (PKC) = test: Inhibition of purified rat brain protein kinase C (RB-PKC)
[4] = biological target: T1, Protein kinase C beta type (Homo sapiens, UniProt P05771); test: Inhibition of Protein kinase C beta 1
T1 sequence (P05771 whole entry): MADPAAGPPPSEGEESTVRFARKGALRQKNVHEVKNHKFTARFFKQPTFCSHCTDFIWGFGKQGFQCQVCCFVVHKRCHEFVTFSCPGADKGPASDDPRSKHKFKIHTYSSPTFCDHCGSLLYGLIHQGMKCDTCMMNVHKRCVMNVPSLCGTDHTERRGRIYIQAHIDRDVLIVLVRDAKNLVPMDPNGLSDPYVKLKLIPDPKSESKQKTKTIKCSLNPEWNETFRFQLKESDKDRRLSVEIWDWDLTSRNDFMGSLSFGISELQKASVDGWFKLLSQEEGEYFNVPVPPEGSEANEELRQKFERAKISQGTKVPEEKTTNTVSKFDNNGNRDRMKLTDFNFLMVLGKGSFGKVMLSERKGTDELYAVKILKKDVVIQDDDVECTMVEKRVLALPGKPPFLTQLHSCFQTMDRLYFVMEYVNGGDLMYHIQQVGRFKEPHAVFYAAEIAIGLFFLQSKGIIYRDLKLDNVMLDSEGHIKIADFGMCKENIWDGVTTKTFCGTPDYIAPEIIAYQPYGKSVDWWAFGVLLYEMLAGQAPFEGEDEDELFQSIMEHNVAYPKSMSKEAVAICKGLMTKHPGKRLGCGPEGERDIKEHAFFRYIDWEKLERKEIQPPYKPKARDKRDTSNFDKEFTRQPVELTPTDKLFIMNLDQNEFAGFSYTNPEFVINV

[5] = biological target: Protein kinase C gamma type (Homo sapiens, UniProt P05129); test: Inhibition of Protein kinase C gamma
[6] = biological target: T2, Protein kinase C epsilon type (Homo sapiens, UniProt Q02156); test: Inhibition of Protein kinase C epsilon
T2 sequence (Q02156 whole entry): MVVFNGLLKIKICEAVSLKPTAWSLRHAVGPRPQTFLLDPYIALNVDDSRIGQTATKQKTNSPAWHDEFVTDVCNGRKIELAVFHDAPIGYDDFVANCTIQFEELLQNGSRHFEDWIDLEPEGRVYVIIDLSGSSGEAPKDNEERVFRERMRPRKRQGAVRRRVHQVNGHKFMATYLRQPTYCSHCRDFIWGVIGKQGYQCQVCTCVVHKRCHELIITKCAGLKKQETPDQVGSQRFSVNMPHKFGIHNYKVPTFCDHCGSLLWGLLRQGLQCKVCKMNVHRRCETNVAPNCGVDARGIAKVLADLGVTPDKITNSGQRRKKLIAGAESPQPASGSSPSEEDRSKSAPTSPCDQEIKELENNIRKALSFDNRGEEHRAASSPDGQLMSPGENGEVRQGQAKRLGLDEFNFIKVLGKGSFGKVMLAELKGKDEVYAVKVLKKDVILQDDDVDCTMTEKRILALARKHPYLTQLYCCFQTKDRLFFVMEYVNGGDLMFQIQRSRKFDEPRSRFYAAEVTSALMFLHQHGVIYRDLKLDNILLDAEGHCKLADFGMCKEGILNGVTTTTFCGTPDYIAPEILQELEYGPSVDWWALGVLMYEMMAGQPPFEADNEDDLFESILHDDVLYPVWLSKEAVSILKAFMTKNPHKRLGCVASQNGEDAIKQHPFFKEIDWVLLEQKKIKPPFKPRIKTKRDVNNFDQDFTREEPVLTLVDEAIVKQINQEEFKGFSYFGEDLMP

[7] = biological target: T3, Protein kinase C zeta type (Homo sapiens, UniProt Q05513); test: Inhibition of Protein kinase C zeta
T3 sequence (Q05513 whole entry): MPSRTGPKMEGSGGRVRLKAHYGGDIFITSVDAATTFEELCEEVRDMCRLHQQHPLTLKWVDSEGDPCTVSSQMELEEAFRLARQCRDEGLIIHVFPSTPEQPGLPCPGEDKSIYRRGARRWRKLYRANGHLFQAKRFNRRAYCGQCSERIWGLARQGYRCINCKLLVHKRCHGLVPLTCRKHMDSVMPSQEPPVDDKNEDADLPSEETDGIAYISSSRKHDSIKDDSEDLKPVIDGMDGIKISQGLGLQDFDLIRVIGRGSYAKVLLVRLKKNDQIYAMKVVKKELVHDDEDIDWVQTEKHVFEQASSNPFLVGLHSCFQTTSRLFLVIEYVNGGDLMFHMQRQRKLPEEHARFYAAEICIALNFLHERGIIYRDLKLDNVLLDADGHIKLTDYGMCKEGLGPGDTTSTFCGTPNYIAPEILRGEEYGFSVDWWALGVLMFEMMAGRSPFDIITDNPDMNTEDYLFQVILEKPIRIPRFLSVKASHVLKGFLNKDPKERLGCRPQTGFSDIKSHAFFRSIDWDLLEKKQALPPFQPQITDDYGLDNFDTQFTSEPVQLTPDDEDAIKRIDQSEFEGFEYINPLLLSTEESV

[8] = biological target: Protein kinase C delta type (Homo sapiens, UniProt Q05655); test: Inhibition of Protein kinase C delta
Sequence of Protein kinase C delta type (Q05655 whole entry): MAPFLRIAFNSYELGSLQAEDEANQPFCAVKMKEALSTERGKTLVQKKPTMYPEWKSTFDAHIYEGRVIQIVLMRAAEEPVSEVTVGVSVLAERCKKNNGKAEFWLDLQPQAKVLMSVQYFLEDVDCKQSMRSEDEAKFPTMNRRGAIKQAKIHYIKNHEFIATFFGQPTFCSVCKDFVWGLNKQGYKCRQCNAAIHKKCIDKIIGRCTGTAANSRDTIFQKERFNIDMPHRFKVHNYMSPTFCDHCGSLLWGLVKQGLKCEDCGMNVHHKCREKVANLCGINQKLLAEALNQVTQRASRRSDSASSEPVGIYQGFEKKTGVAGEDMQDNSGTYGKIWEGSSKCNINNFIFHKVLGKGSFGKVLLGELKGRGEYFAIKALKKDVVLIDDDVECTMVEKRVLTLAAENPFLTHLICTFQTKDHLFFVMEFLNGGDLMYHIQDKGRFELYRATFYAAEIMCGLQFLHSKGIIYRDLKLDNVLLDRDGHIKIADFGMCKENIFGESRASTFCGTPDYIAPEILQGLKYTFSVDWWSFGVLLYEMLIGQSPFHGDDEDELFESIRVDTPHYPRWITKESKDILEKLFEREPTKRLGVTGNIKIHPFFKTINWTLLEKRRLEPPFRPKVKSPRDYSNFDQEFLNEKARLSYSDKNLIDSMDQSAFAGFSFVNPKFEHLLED

[9] = Inhibition of purified rat brain casein kinase II
[10] = biological target: T1, Protein kinase C beta type; test: Inhibition of Protein kinase C beta 2
CaM kinase II = CaM kinase II (Homo sapiens, UniProt Q13557+Q13555+Q13554+Q9UQM7); test: Inhibition of purified mammalian brain [Ca(2+)]/Calmodulin dependent kinase
[11] = biological target: Proto-oncogene tyrosine-protein kinase Src (Homo sapiens, UniProt P12931); test: Inhibition of Src protein tyrosine kinase
Sequence of Proto-oncogene tyrosine-protein kinase Src (P12931 2-536 limits assumed): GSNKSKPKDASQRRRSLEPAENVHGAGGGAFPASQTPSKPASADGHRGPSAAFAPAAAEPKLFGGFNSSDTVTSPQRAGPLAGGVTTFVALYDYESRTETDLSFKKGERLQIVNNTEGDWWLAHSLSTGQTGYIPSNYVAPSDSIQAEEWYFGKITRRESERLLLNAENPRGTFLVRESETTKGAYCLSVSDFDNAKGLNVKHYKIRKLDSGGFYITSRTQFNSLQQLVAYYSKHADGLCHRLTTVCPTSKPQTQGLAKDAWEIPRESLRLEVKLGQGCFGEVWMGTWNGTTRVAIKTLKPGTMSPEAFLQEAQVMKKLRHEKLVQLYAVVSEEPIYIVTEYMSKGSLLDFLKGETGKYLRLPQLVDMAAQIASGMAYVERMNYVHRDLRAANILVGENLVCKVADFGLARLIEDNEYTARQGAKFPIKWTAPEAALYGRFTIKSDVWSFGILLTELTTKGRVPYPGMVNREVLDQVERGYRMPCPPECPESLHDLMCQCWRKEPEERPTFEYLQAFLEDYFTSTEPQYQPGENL

Sequence of Protein kinase C eta type (P24723 whole entry): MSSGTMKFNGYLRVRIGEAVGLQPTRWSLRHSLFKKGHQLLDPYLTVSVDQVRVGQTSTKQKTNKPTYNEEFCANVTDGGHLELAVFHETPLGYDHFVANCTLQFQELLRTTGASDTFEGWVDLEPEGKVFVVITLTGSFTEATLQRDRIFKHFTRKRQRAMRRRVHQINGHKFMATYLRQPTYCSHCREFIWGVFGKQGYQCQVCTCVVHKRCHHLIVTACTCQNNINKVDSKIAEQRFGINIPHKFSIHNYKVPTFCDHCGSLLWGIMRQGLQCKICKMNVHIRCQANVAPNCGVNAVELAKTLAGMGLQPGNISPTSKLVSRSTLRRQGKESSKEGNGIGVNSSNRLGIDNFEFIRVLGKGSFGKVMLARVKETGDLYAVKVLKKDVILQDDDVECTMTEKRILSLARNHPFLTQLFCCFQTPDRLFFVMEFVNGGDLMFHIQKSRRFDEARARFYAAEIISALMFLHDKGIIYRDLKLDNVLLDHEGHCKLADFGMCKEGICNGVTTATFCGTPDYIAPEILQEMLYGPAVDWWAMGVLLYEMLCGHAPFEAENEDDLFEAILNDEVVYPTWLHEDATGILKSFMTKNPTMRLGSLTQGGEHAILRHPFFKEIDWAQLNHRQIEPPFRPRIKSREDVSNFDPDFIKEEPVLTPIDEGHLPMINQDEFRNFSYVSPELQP

pIC50 [1]	pIC50 [2]	pIC50 [3]	IC50 (Protein kinase C (PKC)) [µM]	pIC50 [4]	pIC50 [5]	pIC50 [6]	pIC50 [7]	pIC50 [8]	pIC50 [9]	pIC50 [10]	pIC50 [11]	SMILES	IC50 (CaM kinase II) [µM]
< 4.00	7.38	5.42	2.8	7.66	5.46	5.03	< 4.00	5.38	< 4.00	7.62		Cn1cc(C2=C(c3cn(C4CCN(Cc5ccccc5)C4)c4ccccc34)C(=O)NC2=O)c2ccccc21 (stereo unspecified)	
	5.10	5.22		6.70	5.30	5.22	< 4.00	5.15		7.10		Cn1cc(C2=C(c3cn(C4CCN(C(=O)OC(C)(C)C)CC4)c4ccccc34)C(=O)NC2=O)c2ccccc21	
< 4.00			0.25						< 4.00			CC(C)N1CCC(n2cc(C3=C(c4cn(C)c5ccccc45)C(=O)NC3=O)c3ccccc32)CC1	
< 4.00									< 4.00			CN(C)C[C@@H]1CCn2cc(c3ccccc32)C2=C(C(=O)NC2=O)c2cn(c3ccccc23)CCO1	
5.40			0.2						4.04		4.08	CN1CCC(n2cc(C3=C(c4c[nH]c5ccccc45)C(=O)NC3=O)c3ccccc32)CC1	3
5.15			0.2						< 4.00		< 4.00	CN1CCC(n2cc(C3=C(c4cn(C)c5ccccc45)C(=O)NC3=O)c3ccccc32)CC1	
5.10									< 4.00		4.96	CCN1CCC(n2cc(C3=C(c4cn(C)c5ccccc45)C(=O)NC3=O)c3ccccc32)CC1	
6.00									< 4.00			Cn1cc(C2=C(c3cn(C4CCNCC4)c4ccccc34)C(=O)NC2=O)c2ccccc21	

SMILES	pIC50 [1]	pIC50 [2]	pIC50 [3]	IC50 (Protein kinase C (PKC)) [µM]	pIC50 [4]	pIC50 [5]	pIC50 [6]	pIC50 [7]	pIC50 [8]	pIC50 [9]	pIC50 [10]	pIC50 [11]	IC50 (CaM kinase II) [µM]
Cn1cc(C2=C(c3cn(C4CCN(Cc5ccccc5)CC4)c4ccccc34)C(=O)NC2=O)c2ccccc21	< 4.00			4				< 4.00		< 4.40		< 4.00	> 40
Cn1cc(C2=C(c3cn(C4CCN(CC5CC5)CC4)c4ccccc34)C(=O)NC2=O)c2ccccc21	< 4.00			0.3						< 4.00		4.17	
Cn1cc(C2=C(c3cn(C4CCN(Cc5ccccn5)CC4)c4ccccc34)C(=O)NC2=O)c2ccccc21 [ENZASTAURIN]	< 4.00			0.7						< 4.00			
